Data as given in patent publication EP4707280A1, “1,4-CINEOLE DERIVATIVE AND INTERMEDIATE THEREOF, HERBICIDE CONTAINING SAID DERIVATIVE AS ACTIVE INGREDIENT, METHOD FOR USING HERBICIDE, AND METHOD FOR PREPARING AGROCHEMICAL COMPOSITION” (HOKKO CHEMICAL INDUSTRY CO., LTD., priority 2023, dated 2024).

Legend:
Format in all cases: in vivo
[1] = test system: Echinochloa crus-galli var. formosensis; assay: Test Example 1: herbicidal effect test by soil application in paddy rice; conditions: Echinochloa crus-galli, soil, 336 h; 120 g active ingredient per 10 ares; applied immediately after sowing, flooded pots; 14 days after application; read-out: weed inhibition rate
Summary of the method: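 Weeds sown 0–1 cm deep (30 seeds each) into fertilized, puddled paddy soil in Wagner pots. Pots are flooded immediately, water held near 3 cm, and the diluted emulsifiable concentrate is dripped in at once, delivering 120 g active ingredient per 10 ares under glass-greenhouse management.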

[2] = test system: Echinochloa crus-galli var. formosensis; assay: Test Example 2: herbicidal effect test by application during growth period of paddy rice; conditions: Echinochloa crus-galli; 120 g per 10 ares; applied seven days after sowing, flooded pots; 14 days after application; read-out: weed inhibition rate
Summary of the method: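 Greenhouse pots of flooded paddy soil, seeded shallowly with 30 seeds per weed, are treated on day 7 by dropper with diluted emulsifiable concentrate equal to 120 g a.i./10 a. Duplicate pots are scored for inhibition rate 14 days post-application.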

[3] = test system: Digitaria ciliaris; assay: Test Example 3: herbicidal effect test by soil application in upland field; conditions: Digitaria ciliaris, 120 g per 10 ares, sprayed one day after sowing, 14 days after application, read-out: weed inhibition rate
Summary of the method: (§1)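 Pre-emergence test: seeds mixed into top 1 cm of alluvial loam upland soil in pots; emulsifiable concentrate diluted in water sprayed on soil one day after sowing at 100 L/10 a, 120 g a.i./10 a. Weed inhibition rate (%) scored at 14 days, in duplicate.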

[4] = test system: Echinochloa crus-galli; assay: as above; conditions: Echinochloa crus-galli, 120 g per 10 ares, sprayed one day after sowing, 14 days after application, read-out: weed inhibition rate
Summary of the method: as §1

[5] = test system: Digitaria ciliaris; assay: Test Example 4: herbicidal effect test by stem and leaf treatment in upland field; conditions: Digitaria ciliaris; 120 g per 10 ares; sprayed seven days after sowing, upland soil; 14 days after application; read-out: weed inhibition rate
[6] = test system: Echinochloa crus-galli; assay: as above; conditions: Echinochloa crus-galli; 120 g per 10 ares; sprayed seven days after sowing, upland soil; 14 days after application; read-out: weed inhibition rate
[7] = test system: Echinochloa crus-galli var. formosensis; assay: Test Example 5: herbicidal effect test by soil application in paddy rice (low dose); conditions: Echinochloa crus-galli, soil, 336 h; 7.5 g per 10 ares; applied immediately after sowing, flooded pots; 14 days after application; read-out: weed inhibition rate
Summary of the method: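 7.5 g a.i./10 a applied by dropper into ~3 cm floodwater immediately post-sowing (seeds 0–1 cm, 30 per species; puddled fertilized paddy soil, glasshouse). Duplicates; day-14 inhibition %.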

[8] = test system: Echinochloa crus-galli var. formosensis; assay: Test Example 6: herbicidal effect test by application during growth period of paddy rice (low dose); conditions: Echinochloa crus-galli; 7.5 g per 10 ares; applied seven days after sowing, flooded pots; 14 days after application; read-out: weed inhibition rate
Summary of the method: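 Paddy soil in flooded Wagner pots (about 3 cm water), weeds sown at 0–1 cm, 30 seeds each, grown in a glass greenhouse. Seven days after sowing, water-diluted emulsifiable concentrate was dropped into the water at 7.5 g active ingredient per 10 ares. Weed inhibition rate (%) was scored 14 days after application, in duplicate.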

[9] = test system: Digitaria ciliaris; assay: Test Example 7: herbicidal effect test by soil application in upland field (low dose); conditions: Digitaria ciliaris, 7.5 g per 10 ares, sprayed one day after sowing, 14 days after application, read-out: weed inhibition rate
Method: (§2) The present test was conducted in duplicate for each chemical concentration group, and the weed inhibition rate (%) was determined 14 days after chemical application using the following formula (Math. 1). [formula]
(§3) Pots with an area of 36 cm^2 were filled with upland soil (alluvial loam), twenty seeds each of weeds of Digitaria ciliaris, and Echinochloa crus-galli were uniformly mixed with the top 1 cm layer of soil and the surface was lightly pressed down. One day after sowing, an emulsifiable concentrate prepared according to Formulation Example 5 using the compound shown below was diluted with water, and the diluted solution was sprayed onto the soil surface at a rate of 100 liters per 10 ares. The amount of the active ingredient to be applied was equivalent to 7.5 g per 10 ares. Fourteen days after chemical application, the herbicidal effect was evaluated according to the same criteria as in Test Example 1.

[10] = test system: Echinochloa crus-galli; assay: as above; conditions: Echinochloa crus-galli, 7.5 g per 10 ares, sprayed one day after sowing, 14 days after application, read-out: weed inhibition rate
Method: as §2, §3

[11] = test system: Digitaria ciliaris; assay: Test Example 8: herbicidal effect test by stem and leaf treatment in upland field (low dose); conditions: Digitaria ciliaris; 7.5 g per 10 ares; sprayed seven days after sowing, upland soil; 14 days after application; read-out: weed inhibition rate
Method: as §2
as §3, with “Seven days” for “One day”

[12] = test system: Echinochloa crus-galli; assay: as above; conditions: Echinochloa crus-galli; 7.5 g per 10 ares; sprayed seven days after sowing, upland soil; 14 days after application; read-out: weed inhibition rate
Method: as §2
as §3, with “Seven days” for “One day”

Cc1ccccc1COC1CC2(C(C)C)OC1(C)CC2Br (stereo not drawn) [1-1343, 5-bromo-1-methyl-2-[(2-methylphenyl)methoxy]-4-isopropyl-7-oxabicyclo[2.2.1]heptane]
≥ 80%: pest or weed control at 1200 g/ha [1] | inhibition at 1200 g/ha [2] | inhibition at 1200 g/ha [3] | inhibition at 1200 g/ha [4] | inhibition at 1200 g/ha [5] | inhibition at 1200 g/ha [6] | inhibition at 75 g/ha [7] | inhibition at 75 g/ha [8] | inhibition at 75 g/ha [9] | inhibition at 75 g/ha [10] | inhibition at 75 g/ha [11] | inhibition at 75 g/ha [12]

CC(C)[C@]12C[C@@H](OCc3ccccn3)[C@](C)(C[C@@H]1Br)O2 [1-718, 2-[[(1S,2R,4R,5S)-5-bromo-1-methyl-4-isopropyl-7-oxabicyclo[2.2.1]heptan-2-yl]oxymethyl]pyridine]
≥ 80%: pest or weed control at 1200 g/ha [1] | inhibition at 1200 g/ha [2] | inhibition at 1200 g/ha [3] | inhibition at 1200 g/ha [4] | inhibition at 1200 g/ha [5] | inhibition at 1200 g/ha [6] | inhibition at 75 g/ha [7] | inhibition at 75 g/ha [8] | inhibition at 75 g/ha [9] | inhibition at 75 g/ha [10] | inhibition at 75 g/ha [11] | inhibition at 75 g/ha [12]

CC(C)C12CC(OCc3ccccc3Br)C(C)(CC1Br)O2 (stereo not drawn) [1-1361, 5-bromo-2-[(2-bromophenyl)methoxy]-1-methyl-4-isopropyl-7-oxabicyclo[2.2.1]heptane]
≥ 80%: pest or weed control at 1200 g/ha [1] | inhibition at 1200 g/ha [2] | inhibition at 1200 g/ha [3] | inhibition at 1200 g/ha [4] | inhibition at 1200 g/ha [5] | inhibition at 1200 g/ha [6] | inhibition at 75 g/ha [7] | inhibition at 75 g/ha [8] | inhibition at 75 g/ha [9] | inhibition at 75 g/ha [10] | inhibition at 75 g/ha [11] | inhibition at 75 g/ha [12]

CC(C)C12CC(OCc3ccc(F)cc3)C(C)(CC1Br)O2 (stereo not drawn) [1-1357, 5-bromo-2-[(4-fluorophenyl)methoxy]-1-methyl-4-isopropyl-7-oxabicyclo[2.2.1]heptane]
≥ 80%: pest or weed control at 1200 g/ha [1] | inhibition at 1200 g/ha [2] | inhibition at 1200 g/ha [3] | inhibition at 1200 g/ha [4] | inhibition at 1200 g/ha [5] | inhibition at 1200 g/ha [6] | inhibition at 75 g/ha [7] | inhibition at 75 g/ha [8] | inhibition at 75 g/ha [9] | inhibition at 75 g/ha [10] | inhibition at 75 g/ha [11] | inhibition at 75 g/ha [12]

CCc1ccccc1CO[C@@H]1C[C@]2(C(C)C)O[C@@]1(C)C[C@@H]2Br [1-682, (1S,2R,4R,5S)-5-bromo-2-[(2-ethylphenyl)methoxy]-1-methyl-4-isopropyl-7-oxabicyclo[2.2.1]heptane]
≥ 80%: pest or weed control at 1200 g/ha [1] | inhibition at 1200 g/ha [2] | inhibition at 1200 g/ha [3] | inhibition at 1200 g/ha [4] | inhibition at 1200 g/ha [5] | inhibition at 1200 g/ha [6] | inhibition at 75 g/ha [7] | inhibition at 75 g/ha [8] | inhibition at 75 g/ha [9] | inhibition at 75 g/ha [10] | inhibition at 75 g/ha [11] | inhibition at 75 g/ha [12]

CC(C)C12CC(OCc3c(F)cccc3F)C(C)(CC1Br)O2 (stereo not drawn) [1-1379, 5-bromo-2-[(2,6-difluorophenyl)methoxy]-1-methyl-4-isopropyl-7-oxabicyclo[2.2.1]heptane]
≥ 80%: pest or weed control at 1200 g/ha [1] | inhibition at 1200 g/ha [2] | inhibition at 1200 g/ha [3] | inhibition at 1200 g/ha [4] | inhibition at 1200 g/ha [5] | inhibition at 1200 g/ha [6] | inhibition at 75 g/ha [7] | inhibition at 75 g/ha [8] | inhibition at 75 g/ha [9] | inhibition at 75 g/ha [10] | inhibition at 75 g/ha [11] | inhibition at 75 g/ha [12]

COc1ccccc1COC1CC2(C(C)C)OC1(C)CC2Br (stereo not drawn) [1-1349, 5-bromo-2-[(2-methoxyphenyl)methoxy]-1-methyl-4-isopropyl-7-oxabicyclo[2.2.1]heptane]
≥ 80%: pest or weed control at 1200 g/ha [1] | inhibition at 1200 g/ha [2] | inhibition at 1200 g/ha [3] | inhibition at 1200 g/ha [4] | inhibition at 1200 g/ha [5] | inhibition at 1200 g/ha [6] | inhibition at 75 g/ha [7] | inhibition at 75 g/ha [8] | inhibition at 75 g/ha [9] | inhibition at 75 g/ha [10] | inhibition at 75 g/ha [11] | inhibition at 75 g/ha [12]

CC(C)C12CC(OCc3ccccc3Cl)C(C)(CC1Br)O2 (stereo not drawn) [1-1358, 5-bromo-2-[(2-chlorophenyl)methoxy]-1-methyl-4-isopropyl-7-oxabicyclo[2.2.1]heptane]
≥ 80%: pest or weed control at 1200 g/ha [1] | inhibition at 1200 g/ha [2] | inhibition at 1200 g/ha [3] | inhibition at 1200 g/ha [4] | inhibition at 1200 g/ha [5] | inhibition at 1200 g/ha [6] | inhibition at 75 g/ha [7] | inhibition at 75 g/ha [8] | inhibition at 75 g/ha [9] | inhibition at 75 g/ha [10] | inhibition at 75 g/ha [11] | inhibition at 75 g/ha [12]
